Experimental data as given in patent publication US20210138025A1, “CATIONIC PEPTIDES WITH IMMUNOMODULATORY AND/OR ANTI-BIOFILM ACTIVITIES” (priority 2018, published 2021).
Non-standard residues stand in square brackets, D forms with d. No end group written: not given here. hArg = N=C(N)NCCCC[C@H](N)C(=O)O; Agb = N=C(N)NCC[C@H](N)C(=O)O; Agp = N=C(N)NC[C@H](N)C(=O)O; Orn = NCCC[C@H](N)C(=O)O; Dab = NCC[C@H](N)C(=O)O; Dap = NC[C@H](N)C(=O)O

test system: S. aureus (MRSA SAP0017); type: cell-based, Staphylococcus aureus; details: SPOT synthesized control peptides, determined as in Table 5; Table 7
Method: Methods of assessment of anti-biofilm activity: MRSA S. aureus strain SAP0017 biofilm formation was initially analyzed using a static abiotic solid surface assay as described elsewhere (de la Fuente-Nunez et al., 2012) and shown graphically in FIG. 2. Dilutions (1/100) of overnight cultures were incubated in BM2 biofilm-adjusted medium [62 mM potassium phosphate buffer (pH 7), 7 mM (NH4)2SO4, 2 mM MgSO4, 10 μM FeSO4, 0.4% (wt/vol) glucose, 0.5% (wt/vol) Casamino Acids], or a nutrient rich medium such as Tryptic soy broth supplemented with 1% glucose, in polypropylene microtiter plates (Falcon, United States) in the absence (control) or presence of peptide. Peptide was added at time zero (prior to adding the diluted, overnight cultures) in varying concentrations, and the amount biofilm formation was recorded after 22-46 h incubation for most bacteria. To quantify biofilm growth, planktonic cells were removed and biofilm cells adhering to the side of the wells were stained with crystal violet, and absorbance at 595 nm was measured using a microtiter plate reader (Bio-Tek Instruments Inc., United States).

In order of rising “% Biofilm Inhibition” value:
1. C93 (VRLIVAV[Dap]IWRR) [Peptide C93]  71%
2. C95 (V[Dab]LIVAVRIWRR) [Peptide C95]  71%
3. C107 (VRL[Orn]VAVRIWRR) [Peptide C107]  71%
4. C79 (VRLIVAVRIWR[Agb]) [Peptide C79]  72%
5. C87 (V[Dap]LIVAVRIWRR) [Peptide C87]  73%
6. C86 (VRLIVAVRI[hArg]RR) [Peptide C86]  75%
7. C91 (VRLIV[Dap]VRIWRR) [Peptide C91]  76%
8. C69 (V[Agb]LIVAVRIWRR) [Peptide C69]  81%
9. C96 (VR[Dab]IVAVRIWRR) [Peptide C96]  89%
10. C94 (VRLIVAVR[Dap]WRR) [Peptide C94]  92%
11. C104 (VRLIVAVRIW[Dab]R) [Peptide C104]  93%
12. C58 (V[Agp]LIVAVRIWRR) [Peptide C58]  96%
13. C105 (VRLIVAVRIWR[Dab]) [Peptide C105]  96%
14. C70 (VR[Agb]IVAVRIWRR) [Peptide C70]  98%
15. C80 (V[hArg]LIVAVRIWRR) [Peptide C80]  99%
16. C85 (VRLIVAVR[hArg]WRR) [Peptide C85]  99%
17. C89 (VRL[Dap]VAVRIWRR) [Peptide C89]  99%
18. C99 (VRLIV[Dab]VRIWRR; not fully specified (C-terminus)) [Peptide C99]  100%
19. C61 (VRLI[Agp]AVRIWRR-NH2; N-terminus assumed; SMILES CC[C@H](C)[C@H](NC(=O)[C@H](CC(C)C)NC(=O)[C@H](CCCNC(=N)N)NC(=O)[C@@H](N)C(C)C)C(=O)N[C@@H](CNC(=N)N)C(=O)N[C@@H](C)C(=O)N[C@H](C(=O)N[C@@H](CCCNC(=N)N)C(=O)N[C@H](C(=O)N[C@@H](Cc1c[nH]c2ccccc12)C(=O)N[C@@H](CCCNC(=N)N)C(=O)N[C@@H](CCCNC(=N)N)C(N)=O)[C@@H](C)CC)C(C)C) [Peptide C61]  101%
20. C77 (VRLIVAVRI[Agb]RR; not fully specified (C-terminus); printed as VRLIVAVRIGbutRR) [Peptide C77]  101%
21. C78 (VRLIVAVRIW[Agb]R; not fully specified (C-terminus); printed as VRLIVAVRIWGbutR) [Peptide C78]  101%
22. C97 (VRL[Dab]VAVRIWRR; not fully specified (C-terminus)) [Peptide C97]  102%
23. C103 (VRLIVAVRI[Dab]RR-NH2; N-terminus assumed; SMILES CC[C@H](C)[C@H](NC(=O)[C@H](CCCNC(=N)N)NC(=O)[C@@H](NC(=O)[C@H](C)NC(=O)[C@@H](NC(=O)[C@@H](NC(=O)[C@H](CC(C)C)NC(=O)[C@H](CCCNC(=N)N)NC(=O)[C@@H](N)C(C)C)[C@@H](C)CC)C(C)C)C(C)C)C(=O)N[C@@H](CCN)C(=O)N[C@@H](CCCNC(=N)N)C(=O)N[C@@H](CCCNC(=N)N)C(N)=O) [Peptide C103]  102%
24. C71 (VRL[Agb]VAVRIWRR; not fully specified (C-terminus); printed as VRLGbutVAVRIWRR) [Peptide C71]  103%
25. C75 (VRLIVAV[Agb]IWRR; not fully specified (C-terminus); printed as VRLIVAVGbutIWRR) [Peptide C75]  103%
26. C92 (VRLIVA[Dap]RIWRR) [Peptide C92]  103%
27. C98 (VRLI[Dab]AVRIWRR; not fully specified (C-terminus)) [Peptide C98]  103%
28. C101 (VRLIVAV[Dab]IWRR-NH2; N-terminus assumed; SMILES CC[C@H](C)[C@H](NC(=O)[C@H](CCN)NC(=O)[C@@H](NC(=O)[C@H](C)NC(=O)[C@@H](NC(=O)[C@@H](NC(=O)[C@H](CC(C)C)NC(=O)[C@H](CCCNC(=N)N)NC(=O)[C@@H](N)C(C)C)[C@@H](C)CC)C(C)C)C(C)C)C(=O)N[C@@H](Cc1c[nH]c2ccccc12)C(=O)N[C@@H](CCCNC(=N)N)C(=O)N[C@@H](CCCNC(=N)N)C(N)=O) [Peptide C101]  103%
29. C59 (VR[Agp]IVAVRIWRR-NH2; N-terminus assumed; SMILES CC[C@H](C)[C@H](NC(=O)[C@H](CCCNC(=N)N)NC(=O)[C@@H](NC(=O)[C@H](C)NC(=O)[C@@H](NC(=O)[C@@H](NC(=O)[C@H](CNC(=N)N)NC(=O)[C@H](CCCNC(=N)N)NC(=O)[C@@H](N)C(C)C)[C@@H](C)CC)C(C)C)C(C)C)C(=O)N[C@@H](Cc1c[nH]c2ccccc12)C(=O)N[C@@H](CCCNC(=N)N)C(=O)N[C@@H](CCCNC(=N)N)C(N)=O) [Peptide C59]  104%
30. C60 (VRL[Agp]VAVRIWRR-NH2; N-terminus assumed; SMILES CC[C@H](C)[C@H](NC(=O)[C@H](CCCNC(=N)N)NC(=O)[C@@H](NC(=O)[C@H](C)NC(=O)[C@@H](NC(=O)[C@H](CNC(=N)N)NC(=O)[C@H](CC(C)C)NC(=O)[C@H](CCCNC(=N)N)NC(=O)[C@@H](N)C(C)C)C(C)C)C(C)C)C(=O)N[C@@H](Cc1c[nH]c2ccccc12)C(=O)N[C@@H](CCCNC(=N)N)C(=O)N[C@@H](CCCNC(=N)N)C(N)=O) [Peptide C60]  104%
31. C76 (VRLIVAVR[Agb]WRR; not fully specified (C-terminus); printed as VRLIVAVRGbutWRR) [Peptide C76]  104%
32. C88 (VR[Dap]IVAVRIWRR) [Peptide C88]  104%
33. C100 (VRLIVA[Dab]RIWRR-NH2; N-terminus assumed; SMILES CC[C@H](C)[C@H](NC(=O)[C@H](CCCNC(=N)N)NC(=O)[C@H](CCN)NC(=O)[C@H](C)NC(=O)[C@@H](NC(=O)[C@@H](NC(=O)[C@H](CC(C)C)NC(=O)[C@H](CCCNC(=N)N)NC(=O)[C@@H](N)C(C)C)[C@@H](C)CC)C(C)C)C(=O)N[C@@H](Cc1c[nH]c2ccccc12)C(=O)N[C@@H](CCCNC(=N)N)C(=O)N[C@@H](CCCNC(=N)N)C(N)=O) [Peptide C100]  104%
34. C102 (VRLIVAVR[Dab]WRR-NH2; N-terminus assumed; SMILES CC[C@H](C)[C@H](NC(=O)[C@H](CC(C)C)NC(=O)[C@H](CCCNC(=N)N)NC(=O)[C@@H](N)C(C)C)C(=O)N[C@H](C(=O)N[C@@H](C)C(=O)N[C@H](C(=O)N[C@@H](CCCNC(=N)N)C(=O)N[C@@H](CCN)C(=O)N[C@@H](Cc1c[nH]c2ccccc12)C(=O)N[C@@H](CCCNC(=N)N)C(=O)N[C@@H](CCCNC(=N)N)C(N)=O)C(C)C)C(C)C) [Peptide C102]  104%
35. C106 (VR[Orn]IVAVRIWRR-NH2; N-terminus assumed; SMILES CC[C@H](C)[C@H](NC(=O)[C@H](CCCNC(=N)N)NC(=O)[C@@H](NC(=O)[C@H](C)NC(=O)[C@@H](NC(=O)[C@@H](NC(=O)[C@H](CCCN)NC(=O)[C@H](CCCNC(=N)N)NC(=O)[C@@H](N)C(C)C)[C@@H](C)CC)C(C)C)C(C)C)C(=O)N[C@@H](Cc1c[nH]c2ccccc12)C(=O)N[C@@H](CCCNC(=N)N)C(=O)N[C@@H](CCCNC(=N)N)C(N)=O) [Peptide C106]  104%
36. C63 (VRLIVA[Agp]RIWRR-NH2; N-terminus assumed; SMILES CC[C@H](C)[C@H](NC(=O)[C@H](CCCNC(=N)N)NC(=O)[C@H](CNC(=N)N)NC(=O)[C@H](C)NC(=O)[C@@H](NC(=O)[C@@H](NC(=O)[C@H](CC(C)C)NC(=O)[C@H](CCCNC(=N)N)NC(=O)[C@@H](N)C(C)C)[C@@H](C)CC)C(C)C)C(=O)N[C@@H](Cc1c[nH]c2ccccc12)C(=O)N[C@@H](CCCNC(=N)N)C(=O)N[C@@H](CCCNC(=N)N)C(N)=O) [Peptide C63]  105%
37. C67 (VRLIVAVRIW[Agp]R-NH2; N-terminus assumed; SMILES CC[C@H](C)[C@H](NC(=O)[C@H](CCCNC(=N)N)NC(=O)[C@@H](NC(=O)[C@H](C)NC(=O)[C@@H](NC(=O)[C@@H](NC(=O)[C@H](CC(C)C)NC(=O)[C@H](CCCNC(=N)N)NC(=O)[C@@H](N)C(C)C)[C@@H](C)CC)C(C)C)C(C)C)C(=O)N[C@@H](Cc1c[nH]c2ccccc12)C(=O)N[C@@H](CNC(=N)N)C(=O)N[C@@H](CCCNC(=N)N)C(N)=O) [Peptide C67]  105%
38. C72 (VRLI[Agb]AVRIWRR; not fully specified (C-terminus); printed as VRLIGbutAVRIWRR) [Peptide C72]  105%
39. C84 (VRLIVA[hArg]RIWRR; not fully specified (C-terminus)) [Peptide C84]  105%
40. C62 (VRLIV[Agp]VRIWRR) [Peptide C62]  106%
41. C68 (VRLIVAVRIWR[Agp]) [Peptide C68]  106%
42. C74 (VRLIVA[Agb]RIWRR) [Peptide C74]  106%
43. C82 (VRL[hArg]VAVRIWRR) [Peptide C82]  106%
44. C83 (VRLI[hArg]AVRIWRR) [Peptide C83]  106%
45. C64 (VRLIVAV[Agp]IWRR) [Peptide C64]  107%
46. C65 (VRLIVAVR[Agp]WRR) [Peptide C65]  107%
47. C66 (VRLIVAVRI[Agp]RR) [Peptide C66]  107%
48. C81 (VR[hArg]IVAVRIWRR) [Peptide C81]  107%
